Measurements: patent publication US20250228865A1, “COMPOUNDS FOR ENHANCING READ THROUGH OF GENES CONTAINING PREMATURE TERMINATION CODONS AND METHODS FOR MAKING AND USING THE SAME” (Sanofi US Services Inc., priority 2022, published 2025)

How the values were obtained:
[1] = test system: recombinant human CFTR carrying the premature stop codon (PTC) mutation G542X; assay: CFTR-PTC mutant translation readthrough, Nanoluc tagged CFTR luminescence (G542X cell line); assay type: cell-based; details: in combination with G418, G542X cell line; for CFTR G542X ACTIVITY Fold 10 μM G-418: fold over 10 μM G-418; for EC50: 16HBE cells
Description: (§1) 16HBE human bronchial epithelial cells (stably over-expressing recombinant human CFTR carrying the premature stop codon (PTC) mutation G542X or R1162X along with a Nanoluc tag incorporated into the CFTR channel within extracellular loop 4 in G542X cell line or C-terminus end in the R1162X cell line were seeded at 0.01×10^6 cells/well and grown in Minimal Essential Medium (MEM) as monolayers in 384 well plates and incubated at 37° C. with 5% CO2. Media was changed every other day until day of experiment. Agents to be evaluated were made up in separate 384 well, polypropylene plates at a 2X the final desired test concentration. Test agent 10-point concentration response curves were constructed using the Labcyte Echo 555 acoustic dispenser. Test agents were typically tested at a max final test concentrations of 50 μM with sequential 2-fold lower concentrations below this in the absence or presence of a fixed 10 μM concentration of the aminoglycoside G418 made up in MEM growth media (reduced Serum Media+HEPES Buffer+2.4 g/L Sodium Bicarbonate+L-Glutamine containing CFTR corrector VX-809 (3 μM)). Treatment with 10 μM G418 alone produced approximately 10% of the response observed with a maximally effective concentration of G418 (typically 125-250 μM). Test agent effects in presence of 10 μM G418 were compared to control wells on the plate containing a maximally effective concentration of G418 (typically 125-250 μM) made up in the same media. 25 ul of test agents/control solutions were transferred from the compound plate to the cell plate, which already contained 25 ul/well of cell plating media, using an Integra Viaflo 384. Cell plates were incubated with the compounds for 48 hours, at which time they were processed using Nanoluc luminescence Kit (Promega Nano-Glo Live Cell Assay System) to measure CFTR-PTC mutant translation readthrough. Luminescence was measured as follows. Cell plates were removed from the incubator and allowed to equilibrate to room temperature for 20 minutes. Media was removed from all wells and the plates were blotted to remove excess remaining volume. Nano-Glo Live Cell Substrate was diluted 1:20 in the appropriate amount of Nano-Glo LCS Dilution Buffer to accommodate the number of cell plates being tested. The substrate/dilution buffer mix was then diluted 1:3 with MEM media to make the appropriate volume for the number of plates being tested. The substrate/dilution buffer/OptiMEM mix was added across the Nanoluc testing cell plates and the plates were read for luminescence signal immediately. Test agent effects on CFTR translation readthrough was determined by normalizing any observed increase in luminescence induced by 48 hours pretreatment with test compound to the magnitude of luminescence increase produced by pretreatment with a maximally effective concentration of the reference readthrough enhancing agent G418 (125-250 μM).

[2] = test system: recombinant human CFTR carrying the premature stop codon (PTC) mutation R1162X; assay: CFTR-PTC mutant translation readthrough, Nanoluc tagged CFTR luminescence (R1162X cell line); assay type: cell-based; details: for CFTR R1162X ACTIVITY Fold 10 μM G-418: fold over 10 μM G-418, in combination with G418; for EC50: in combination with G418, 16HBE cells, read-out: CFTR R1162X ACTIVITY EC50
Description: as §1

SMILES | CFTR G542X ACTIVITY Fold 10 μM G-418 [1] | EC50 [1] | CFTR R1162X ACTIVITY Fold 10 μM G-418 [2] | EC50 [2]
O=C1COC(=O)N1c1ccc(OCc2c(Cl)cccc2Cl)cc1 [3-[4-[(2,6-dichlorophenyl)methoxy]phenyl]oxazolidine-2,4-dione] | B′ (B′ = ≥5X to <10X) | 1000 to 10000 nM | C′ (C′ = <5X) | 1000 to 10000 nM
NC(=O)[C@H]1CCN(c2ncc(OCc3c(Cl)cccc3C(F)(F)F)cn2)C1 | A′ (A′ = ≥10X) | 1000 to 10000 nM | A′ (A′ = ≥10X) | 1000 to 10000 nM
NC(=O)C1CCN(c2ncc(OCc3c(Cl)cccc3Cl)cn2)C1 (stereo not drawn) [1-[5-[(2,6-dichlorophenyl)methoxy]pyrimidin-2-yl]pyrrolidine-3-carboxamide] | A′ (A′ = ≥10X) | 1000 to 10000 nM | A′ (A′ = ≥10X) | 1000 to 10000 nM
C[C@H]1CO[C@H](CO)CN1c1ncc(OCc2c(Cl)cccc2Cl)cn1 (racemic) | A′ (A′ = ≥10X) | 1000 to 10000 nM | A′ (A′ = ≥10X) | 1000 to 10000 nM
O=C(O)C1CCN(c2ncc(OCc3c(Cl)cccc3C(F)(F)F)cn2)C1 (stereo not drawn) | A′ (A′ = ≥10X) | 1000 to 10000 nM | B′ (B′ = ≥5X to <10X) | 1000 to 10000 nM
O=CN[C@@H](CO)C(=O)Nc1ccc(OCc2c(Cl)cccc2Cl)cn1 |  | > 10000 nM | B′ (B′ = ≥5X to <10X) | > 10000 nM
Cc1cccc(C(C)(F)F)c1COc1ccc(-n2cc(CO)nn2)cc1 | B′ (B′ = ≥5X to <10X) | 1000 to 10000 nM | B′ (B′ = ≥5X to <10X) | 1000 to 10000 nM
NCC1CN(c2ccc(OCc3c(Cl)cccc3Cl)cc2)C(=O)O1 (stereo not drawn) [5-(aminomethyl)-3-[4-[(2,6-dichlorophenyl)methoxy]phenyl]oxazolidin-2-one] | B′ (B′ = ≥5X to <10X) | 1000 to 10000 nM | A′ (A′ = ≥10X) | > 10000 nM
O=C(NCC1CN(c2ncc(OCc3c(Cl)cccc3Cl)cn2)CCO1)C(F)(F)F (stereo not drawn) | A′ (A′ = ≥10X) | 1000 to 10000 nM | B′ (B′ = ≥5X to <10X) | 1000 to 10000 nM
Cc1cccc(C(F)(F)F)c1COc1cnc(N2CCO[C@H](CO)C2)nc1 | A′ (A′ = ≥10X) | < 1000 nM | A′ (A′ = ≥10X) | < 1000 nM
CN1C(=O)CN(c2ccc(OCc3c(Cl)cccc3C(F)(F)F)cn2)C1=O | A′ (A′ = ≥10X) | < 1000 nM | A′ (A′ = ≥10X) | < 1000 nM
O=C1OC(CO)CN1c1ccc(CCc2c(Cl)cccc2Cl)cn1 (stereo not drawn) [3-[5-[2-(2,6-dichlorophenyl)ethyl]-2-pyridyl]-5-(hydroxymethyl)oxazolidin-2-one] | B′ (B′ = ≥5X to <10X) | 1000 to 10000 nM | A′ (A′ = ≥10X) | > 10000 nM
O=C1CCC(=O)N1c1ccc(OCc2c(Cl)cccc2Cl)cc1 [1-[4-[(2,6-dichlorophenyl)methoxy]phenyl]pyrrolidine-2,5-dione] | A′ (A′ = ≥10X) | 1000 to 10000 nM | B′ (B′ = ≥5X to <10X) | 1000 to 10000 nM
CC(=O)NCC1CN(c2ccc(OCc3c(C)cccc3C(F)(F)F)cc2)C(=O)O1 (stereo not drawn) | A′ (A′ = ≥10X) | 1000 to 10000 nM | A′ (A′ = ≥10X) | 1000 to 10000 nM
CCc1cccc(C(F)(F)F)c1COc1cnc(-n2cnc(CO)c2)nc1 | A′ (A′ = ≥10X) | < 1000 nM | A′ (A′ = ≥10X) | < 1000 nM
Cc1cccc(C(F)(F)F)c1COc1cnc(N2CCO[C@@H](CN)C2)nc1 | A′ (A′ = ≥10X) | < 1000 nM | A′ (A′ = ≥10X) | < 1000 nM

SMILES | CFTR G542X ACTIVITY Fold 10 μM G-418 [1] | EC50 [1] | CFTR R1162X ACTIVITY Fold 10 μM G-418 [2] | EC50 [2]
Cc1cccc(C(F)(F)F)c1COc1ccc(-n2cnc(CO)c2)nc1 | A′ (A′ = ≥10X) | < 1000 nM | A′ (A′ = ≥10X) | 1000 to 10000 nM
Cc1cccc(C(F)(F)F)c1COc1cnc(N2CCN(CCOCCO)CC2)nc1 | A′ (A′ = ≥10X) | 1000 to 10000 nM | A′ (A′ = ≥10X) | 1000 to 10000 nM
Cc1cccc(C(F)(F)F)c1COc1cnc(N2CCC(O)C(C)(C)C2)nc1 (stereo not drawn) | A′ (A′ = ≥10X) | < 1000 nM | A′ (A′ = ≥10X) | < 1000 nM
OCc1cn(-c2ncc(OCc3c(Cl)cccc3C(F)(F)F)cn2)cn1 | C′ (C′ = <5X) | < 1000 nM | C′ (C′ = <5X) | < 1000 nM
OCc1cn(-c2ccc(OCc3c(Cl)cccc3Cl)cn2)nn1 [[1-[5-[(2,6-dichlorophenyl)methoxy]-2-pyridyl]triazol-4-yl]methanol] | A′ (A′ = ≥10X) | < 1000 nM | A′ (A′ = ≥10X) | < 1000 nM
Cc1cccc(C(F)(F)F)c1COc1cnc(N2CCC(O)(CCO)CC2)nc1 | A′ (A′ = ≥10X) | < 1000 nM | A′ (A′ = ≥10X) | < 1000 nM
OCc1cn(-c2ccc(CCc3c(Cl)cccc3Cl)cn2)cn1 [[1-[5-[2-(2,6-dichlorophenyl)ethyl]-2-pyridyl]imidazol-4-yl]methanol] | B′ (B′ = ≥5X to <10X) | 1000 to 10000 nM | ′ | > 10000 nM
Clc1cccc(Cl)c1COc1cnc(N2CCC3(CCO3)C2)nc1 (stereo not drawn) [7-[5-[(2,6-dichlorophenyl)methoxy]pyrimidin-2-yl]-1-oxa-7-azaspiro[3.4]octane] | A′ (A′ = ≥10X) | < 1000 nM | A′ (A′ = ≥10X) | 1000 to 10000 nM
Cc1cccc(OC(F)F)c1COc1ccc(-n2cnc(CO)n2)cc1 | B′ (B′ = ≥5X to <10X) | 1000 to 10000 nM | B′ (B′ = ≥5X to <10X) | 1000 to 10000 nM
O=C1CN(c2ncc(OCc3c(Cl)cccc3Cl)cn2)C(=O)N1 [Example 323, 1-{5-[(2,6-dichlorophenyl)methoxy]pyrimidin-2-yl}imidazolidine-2,4-dione] | C′ (C′ = <5X) | 1000 to 10000 nM | C′ (C′ = <5X) | 1000 to 10000 nM
Cc1cccc(C(F)(F)F)c1COc1cnc(N2CCN3CCOCC3C2)nc1 (stereo not drawn) | A′ (A′ = ≥10X) | < 1000 nM | A′ (A′ = ≥10X) | < 1000 nM
CCCCN1CC(=O)N(c2ncc(OCc3c(Cl)cccc3Cl)cn2)C1=O [1-butyl-3-[5-[(2,6-dichlorophenyl)methoxy]pyrimidin-2-yl]imidazolidine-2,4-dione] |  | > 10000 nM | C′ (C′ = <5X) | > 10000 nM
NCc1cc(-c2ccc(OCc3c(Cl)cccc3Cl)cn2)no1 [Example 234, [3-[5-[(2,6-dichlorophenyl)methoxy]-2-pyridyl]isoxazol-5-yl]methanamine] | A′ (A′ = ≥10X) | < 1000 nM | A′ (A′ = ≥10X) | 1000 to 10000 nM
NC(=O)C1CCCN(c2ncc(OCc3c(Cl)cccc3Cl)cn2)C1 (stereo not drawn) [1-[5-[(2,6-dichlorophenyl)methoxy]pyrimidin-2-yl]piperidine-3-carboxamide] | A′ (A′ = ≥10X) | < 1000 nM | A′ (A′ = ≥10X) | < 1000 nM
CCc1cccc(C(F)(F)F)c1COc1ccc(N2CC(CO)NC2=O)cc1 (stereo not drawn) | A′ (A′ = ≥10X) | < 1000 nM | A′ (A′ = ≥10X) | 1000 to 10000 nM
Cc1cccc(C(F)(F)F)c1COc1cnc(N2CCN(C(N)=O)C(CO)C2)nc1 (stereo not drawn) | A′ (A′ = ≥10X) | < 1000 nM | A′ (A′ = ≥10X) | < 1000 nM
